Source: patent US12065654B2, “Plants having increased tolerance to herbicides” (BASF SE, priority 2014, dated 2024)
Like-named read-outs stand apart in the source and are kept apart here.

Assays:
[1] = tested on: Picrophilus HPPD; test: HPPD activity assay; format: biochemical, Picrophilus torridus; conditions: HPPD enzyme Picrophilus
Experimental: (§1) The activity assay for HPPD is based on the analysis of homogentisic acid by reversed phase HPLC.
(§2) The assay mixture can contain 150 mM potassium phosphate buffer pH 7.0, 50 mM L-ascorbic acid, 100 μM Catalase (Sigma-Aldrich), 1 μM FeSO4 and 0.2 units of purified HPPD enzyme in a total volume of 505 μl. 1 unit is defined as the amount of enzyme that is required to produce 1 nmol of HGA per minute at 20° C.
(§3) The reaction is allowed to proceed for 45 min at room temperature. The reaction is stopped by the addition of 50 μl of 4.5 M phosphoric acid. The sample is filtered using a […] pore size PVDF filtration device. 5 μl of the cleared sample is analyzed on an UPLC HSS T3 column (particle size 1.8 μm, dimensions 2, 1×50 mm; Waters) by isocratic elution using 90% 20 mM NaH2PO4 pH 2.2, 10% methanol (v/v).
(§4) HGA is detected electrochemically at 750 mV (mode: DC; polarity: positive) and quantified by integrating peak areas (Empower software; Waters).
(§5) Inhibitors are dissolved in DMSO (dimethylsulfoxide) to a concentration of 0.5 mM. From this stock solution serial five-fold dilutions are prepared in DMSO, which are used in the assay. The respective inhibitor solution accounts for 1% of the assay volume. Thus, final inhibitor concentrations range from 5 μM to 320 pM, respectively. Activities are normalized by setting the uninhibited enzyme activity to 100%. IC50 values are calculated using non-linear regression.
(§6) Using methods which are described in the above examples or well known in the art, purified recombinant wild-type HPPD enzymes are characterized with respect to their kinetic properties and sensitivity towards HPPD inhibiting herbicides. Apparent michaelis constants (Km) and maximal reaction velocities (Vmax) are calculated by non-linear regression with the software GraphPad Prism 5 (GraphPad Software, La Jolla, USA) using a substrate inhibition model. […] Weighted means (by standard error) of Km and IC50 values are calculated from at least three independent experiments. The Cheng-Prusoff equation for competitive inhibition (Cheng, Y. C.; Prusoff, W. H. Biochem Pharmacol 1973, 22, 3099-3108) is used to calculate dissociation constants (Ki).
(§7) Field performance of the HPPD enzyme, which is used as a herbicide tolerance trait may depend not only on its lack of sensitivity towards HPPD inhibiting herbicides but also on its activity. To assess the potential performance of a herbicide tolerance trait a tolerance index (TI) is calculated using the following formula: […]
(§8) Easy comparison and ranking of each trait is enabled by normalizing tolerance indexes on Arabidopsis wild-type HPPD.

[2] = tested on: Kordia HPPD; test: HPPD activity assay; format: biochemical; conditions: HPPD enzyme Kordia
Experimental: as §1, §2, §3, §4, §5, §6, §7, §8

[3] = tested on: Rhodococcus HPPD2; test: HPPD activity assay; format: biochemical; conditions: HPPD enzyme Rhodococcus HPPD2
Experimental: as §1, §2, §3, §4, §5, §6, §7, §8

[4] = tested on: Lolium HPPD; test: HPPD activity assay; format: biochemical; conditions: HPPD enzyme Lolium
Experimental: as §1, §2, §3, §4, §5, §6, §7, §8

[5] = tested on: transgenic Arabidopsis plants (T2) HvHPPD L320H; format: in vivo, Arabidopsis thaliana; conditions: for Injury evaluation: Arabidopsis T2 HvHPPD L320H, two weeks after treatment
Text: (§9) For post emergence treatment, the test plants are first grown to a height of 3 to 15 cm, depending on the plant habit, and only then treated with the herbicides. For this purpose, the test plants are either sown directly and grown in the same containers, or they are first grown separately and transplanted into the test containers a few days prior to treatment.
(§10) Herbicide injury scoring is done 2-3 weeks after treatment and is rated on a scale of 0 to 100%, 0% being no injury and 100% being complete death.
(§11) Transgenic Arabidopsis plants were sprayed with a range of doses from 0.78-6.25 g/ha of different HPPD-inhibiting herbicides and injury evaluations were taken two weeks after treatment.

[6] = tested on: transgenic Arabidopsis plants (T2) HvHPPD L320H, P321A; test: Greenhouse herbicide spray test; format: in vivo, Arabidopsis thaliana; conditions: two weeks after treatment
Text: as §9, §10, §11

[7] = tested on: transgenic Arabidopsis plants (T2) AtHPPD M335Y, P336A, E363Q; test: Greenhouse herbicide spray test; format: in vivo, Arabidopsis thaliana; conditions: two weeks after treatment
Text: as §9, §10, §11

[8] = tested on: transgenic Arabidopsis plants (T2) AtHPPD F381I; test: Greenhouse herbicide spray test; format: in vivo, Arabidopsis thaliana; conditions: two weeks after treatment
Text: as §9, §10, §11

[9] = tested on: Arabidopsis plants, transgene none (WT); test: Greenhouse herbicide spray test; format: in vivo, Arabidopsis thaliana; conditions: two weeks after treatment
Text: as §9, §10, §11

[10] = tested on: transgenic Arabidopsis plants (T2) PtHPPD WT (Picrophilus HPPD); test: Greenhouse herbicide spray test; format: in vivo, Arabidopsis thaliana; conditions: for Injury evaluation: Arabidopsis T2 PtHPPD WT, two weeks after treatment
Text: as §9, §10, §11

[11] = tested on: transgenic Arabidopsis plants (T2) AtHPPD M335H, P336A, E363Q; test: Greenhouse herbicide spray test; format: in vivo, Arabidopsis thaliana; conditions: two weeks after treatment
Text: as §9, §10, §11

[12] = Table 18, no transgene, 0.78 g/ha
[13] = Table 18, no transgene, 1.56 g/ha
[14] = Table 18, no transgene, 3.125 g/ha
[15] = Table 18, no transgene, 6.25 g/ha
[16] = Table 19, no transgene, 0.78 g/ha
[17] = Table 19, no transgene, 1.56 g/ha
[18] = Table 19, no transgene, 3.125 g/ha
[19] = Table 19, no transgene, 6.25 g/ha

| Compound | TI normalized to Arabidopsis HPPD [1] | TI normalized to Arabidopsis HPPD [2] | TI normalized to Arabidopsis HPPD [3] | TI normalized to Arabidopsis HPPD [4] | Injury evaluation ([5]; 0.78 g/ha) [%] | Injury evaluation ([5]; 1.56 g/ha) [%] | Injury evaluation ([5]; 3.125 g/ha) [%] | Injury evaluation ([5]; 6.25 g/ha) [%] | Injury evaluation ([6]; 0.78 g/ha) [%] | Injury evaluation ([6]; 1.56 g/ha) [%] | Injury evaluation ([6]; 3.125 g/ha) [%] | Injury evaluation ([6]; 6.25 g/ha) [%] | Injury evaluation ([7]; 0.78 g/ha) [%] | Injury evaluation ([7]; 1.56 g/ha) [%] | Injury evaluation ([7]; 3.125 g/ha) [%] | Injury evaluation ([7]; 6.25 g/ha) [%] | Injury evaluation ([8]; 1.56 g/ha) [%] | Injury evaluation ([8]; 3.125 g/ha) [%] | Injury evaluation ([8]; 6.25 g/ha) [%] | Injury evaluation [9, 12] [%] | also measured |
| --- | --- | --- | --- | --- | --- | --- | --- | --- | --- | --- | --- | --- | --- | --- | --- | --- | --- | --- | --- | --- | --- |
| Cc1c(C(=O)c2cnn(C)c2O)ccc(S(C)(=O)=O)c1C1=NOCC1 [Inhibitor 1, [3-(4,5-dihydroisoxazol-3-yl)-2-methyl-4-methylsulfonyl-phenyl]-(5-hydroxy-1-methyl-pyrazol-4-yl)methanone] | 10.4 | 3.2 | 19.3 | 1.7 | 13 | 57 | 68 | 94 | 0 | 0 | 0 | 0 | 12 | 21 | 42 | 68 | 43 | 55 | 70 | 89 | fold increased tolerance ([5]; Arabidopsis HvHPPD L320H, lowest concentration tested): 6.5 fold; Injury evaluation [9, 13]: 99%; Injury evaluation [9, 14]: 99%; Injury evaluation [9, 15]: 100%; Injury evaluation [9, 16]: 85%; Injury evaluation [9, 17]: 88%; Injury evaluation [9, 18]: 96%; Injury evaluation [9, 19]: 99%; Injury evaluation ([10]; 0.78 g/ha): 13%; Injury evaluation ([10]; 1.56 g/ha): 17%; Injury evaluation ([10]; 3.125 g/ha): 62%; Injury evaluation ([10]; 6.25 g/ha): 99%; fold less susceptible compared to the control ([10]; Arabidopsis expressing Picrophilus HPPD, dose of 3,125 g/ha): 1.6 fold; fold tolerance compared to the control ([10]; Arabidopsis expressing Picrophilus HPPD, two lowest application rates): 6.8 fold; Injury evaluation ([11]; 0.78 g/ha): 0%; Injury evaluation ([11]; 1.56 g/ha): 10%; Injury evaluation ([11]; 3.125 g/ha): 15%; Injury evaluation ([11]; 6.25 g/ha): 15% |
| CS(=O)(=O)c1ccc(C(=O)C2C(=O)CCCC2=O)c([N+](=O)[O-])c1 [Inhibitor 2, 2-(4-methylsulfonyl-2-nitro-benzoyl)cyclohexane-1,3-dione] | 0.2 | 0.1 | 0.3 | 2.6 | 0 | 0 | 0 | 0 | 0 | 0 | 0 | 0 | 5 | 12 | 21 | 38 | 20 | 25 | 78 | 78 | resistance (in words) ([5]; Arabidopsis HvHPPD L320H, 0.78-6.25 g/ha): resistant; Injury evaluation [9, 13]: 95%; Injury evaluation [9, 14]: 100%; Injury evaluation [9, 15]: 99%; Injury evaluation [9, 16]: 93%; Injury evaluation [9, 17]: 99%; Injury evaluation [9, 18]: 100%; Injury evaluation [9, 19]: 100%; Injury evaluation ([10]; 0.78 g/ha): 0%; Injury evaluation ([10]; 1.56 g/ha): 0%; Injury evaluation ([10]; 3.125 g/ha): 3%; Injury evaluation ([10]; 6.25 g/ha): 0%; leaf damage (in words) ([10]; Arabidopsis overexpressing Picrophilus HPPD (SEQ-ID:40), tested application rates 0.78-6.25 g/ha): no leaf damages could be observed; Injury evaluation ([11]; 0.78 g/ha): 3%; Injury evaluation ([11]; 1.56 g/ha): 0%; Injury evaluation ([11]; 3.125 g/ha): 13%; Injury evaluation ([11]; 6.25 g/ha): 12% |
| COCCOCc1nc(C(F)(F)F)ccc1C(=O)C1=C(O)C2CCC(C2)C1=O (centres unmarked) [Inhibitor 3, 2-hydroxy-3-[2-(2-methoxyethoxymethyl)-6-(trifluoromethyl)pyridine-3-carbonyl]bicyclo[3.2.1]oct-2-en-4-one] | 7.8 | 0.3 | 1.3 | 2.5 | – | – | – | – | – | – | – | – | – | – | – | – | – | – | – | – | – |
| CS(=O)(=O)c1ccc(C(=O)C2C(=O)CCCC2=O)c(Cl)c1COCC(F)(F)F [Inhibitor 4, 2-[2-chloro-4-methylsulfonyl-3-(2,2,2-trifluoroethoxymethyl)benzoyl]cyclohexane-1,3-dione] | 0.4 | 0.1 | 0.5 | 2.6 | – | – | – | – | – | – | – | – | – | – | – | – | – | – | – | – | – |
